Legend:
[1] = test system: APP/PS1 mutant mice; test: HFS-induced hippocampal LTP in WT and APP/PS1 mice after in vivo treatment; parameters: species or system mouse; conditions: KYL infused by osmotic pump (17 μg, ~3 weeks)
Excerpt: APP/PS1 double-transgenic mice were obtained from Jackson Laboratory (B6C3-Tg[APPswe, PSEN1dE9]85Dbo/J)^66. These mice were generated by incorporating a human/murine APP construct bearing the Swedish double mutation and the exon-9-deleted PSEN1 mutation (APPswe+PSEN1/dE9). APP transgenic mice (Tg2576) expressing a double mutant of human AβPP (Lys^670→Asn^670, Met^671→Leu^671) were also used^31. Both sexes were used for experiments, and all mice used in this study were produced by the Animal Care Facility of The Hong Kong University of Science and Technology. The genotype was confirmed by polymerase chain reaction analysis of tail biopsies. Four to five mice of the same sex were housed in a cage with food and water ad libitum with a 12-hour light/dark cycle.
To investigate the effect of blocking EphA4 signaling by KYL peptide in AD mice, 4-5-month-old AD transgenic mice were implanted with Alzet mini-osmotic pumps, model 1004, pumping its contents at 0.11 μL/h for 28 days. Pumps were loaded with either 0.23 μg/μL KYL peptide (17 μg) or vehicle solvent in artificial cerebrospinal fluid (CSF). The mini-osmotic pumps were adjusted intracerebroventricularly in the right hemisphere. EphA4 in the CA1 regions of APP/PS1 mice was knocked down by injecting vesicular stomatitis virus glycoprotein G-pseudotyped lentiviral particles with pFUGW-shEphA4 bilaterally into the corresponding regions as described previously^58.
For LTP recordings, mouse brains were immediately dissected after sacrifice and soaked in ice-cold 95% O2/5% CO2 (aCSF)^58. Brain slices (300 μm thick) were prepared using a vibrating tissue slicer (HM650V; Thermo), and soaked in oxygenated buffer for 2 h at 32° C. […] For treatment with EphA4 inhibitors, the slices were pretreated with peptides or chemicals for 1 h before application of Aβ. fEPSPs were recorded using a MED64 multichannel recording system, and the data were collected from the dendritic layer of area CA1 at a sampling rate of 10 kHz. For each slice, the baseline stimulus intensity was set at the level that elicited ˜50% of the maximum fEPSP response determined according to the input-output curve. […] The magnitude of LTP was quantified as a percentage change in the fEPSP slope (10%-90%) taken during the 60-min interval after LTP induction.
WT and APP/PS1 mutant (Tg) mice were orally administered with corylin ([…]) by daily gavage for 3-4 weeks prior to LTP measurements. LTP induced by 3 trains of HFS (100 Hz for 1 s delivered 30 s apart) in the CA1 region of the SC pathway of the hippocampus was measured. The magnitude of LTP was quantified as the percentage change in the fEPSP slope (10-90%) taken during the 60-min interval after LTP induction.

[2] = biological target: T1, EphA4 (Rattus norvegicus, UniProt D3ZZK3); test: Aβ-stimulated EphA4 tyrosine phosphorylation in acute hippocampal slices; type: cell-based; conditions: KYL 0.5 h pretreatment then Aβ 2 h
T1 construct: endogenous in cells; host or cells: primary rat cortical neurons (A5), primary rat hippocampal neurons (A7)
T1 sequence (D3ZZK3 20-986): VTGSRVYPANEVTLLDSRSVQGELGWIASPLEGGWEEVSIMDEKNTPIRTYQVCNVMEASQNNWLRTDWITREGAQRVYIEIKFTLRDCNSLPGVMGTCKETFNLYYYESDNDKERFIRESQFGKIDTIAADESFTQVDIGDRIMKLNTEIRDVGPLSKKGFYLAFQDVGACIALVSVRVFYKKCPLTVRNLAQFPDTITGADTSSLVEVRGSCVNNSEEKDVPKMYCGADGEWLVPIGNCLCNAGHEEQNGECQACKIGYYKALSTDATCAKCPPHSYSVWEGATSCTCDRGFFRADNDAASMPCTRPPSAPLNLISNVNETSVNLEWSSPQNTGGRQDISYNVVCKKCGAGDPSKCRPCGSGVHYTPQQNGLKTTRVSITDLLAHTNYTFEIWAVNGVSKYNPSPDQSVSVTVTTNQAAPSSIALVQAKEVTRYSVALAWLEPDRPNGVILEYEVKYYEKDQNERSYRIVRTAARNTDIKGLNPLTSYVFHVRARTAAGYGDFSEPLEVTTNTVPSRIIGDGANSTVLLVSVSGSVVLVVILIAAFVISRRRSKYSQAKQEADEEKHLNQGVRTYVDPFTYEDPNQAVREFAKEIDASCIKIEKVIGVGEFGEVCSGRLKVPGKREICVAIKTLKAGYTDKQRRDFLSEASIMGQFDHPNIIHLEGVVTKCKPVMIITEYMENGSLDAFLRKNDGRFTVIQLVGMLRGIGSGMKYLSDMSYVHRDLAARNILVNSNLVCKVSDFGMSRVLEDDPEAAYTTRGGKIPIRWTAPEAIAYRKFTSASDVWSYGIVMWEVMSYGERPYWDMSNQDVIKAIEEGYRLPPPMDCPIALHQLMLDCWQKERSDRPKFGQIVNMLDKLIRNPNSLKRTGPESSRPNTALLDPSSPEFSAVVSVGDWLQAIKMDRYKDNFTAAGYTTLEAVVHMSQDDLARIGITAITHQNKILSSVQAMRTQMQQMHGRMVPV
Procedure: Hippocampal synaptosomes were prepared as described previously^67. Acute hippocampal slices from P15-P17 rats were lysed in radioimmunoprecipitation assay (RIPA) buffer (1% Triton X-100, 1% sodium deoxycholate, 0.1% SDS, 150 mM NaCl, 10 mM sodium phosphate, 2 mM EDTA, and 0.2% sodium vanadate) with various protease inhibitors. For the Cdk5 kinase assay, cultured cortical neurons [16 days in vitro (DIV)] were lysed in lysis buffer A (20 mM Tris [pH 7.6], 150 mM NaCl, 1 mM EDTA, 1 mM EGTA, 1 mM NaF, and 0.5% Nonidet P-40) with various protease inhibitors. Western blot analysis was performed as described previously^24.
For the immunoprecipitation assay, lysates were immunoprecipitated with the corresponding antibody for 2 h at 4° C. followed by incubation with protein G Sepharose for 1 h at 4° C.^24. The samples were washed with RIPA buffer or buffer A and resuspended in SDS sample buffer. EphA4 tyrosine phosphorylation was detected by western blot analysis using 4G10 antibody.

[3] = biological target: T2, EphA4 (HT-22 cells) (Mus musculus, UniProt Q03137); test: Cell-based binding of biotinylated ephrin-A1 to the surface of HT-22 cells; conditions: 10 min pre-incubation; Rhy 300 μM, KYL 100 μM (FIG. 10); biotinylated ephrin-A1 0.5 μg/mL
T2 construct: HT-22 cells, a cell line that expresses EphA4; endogenous in cells; host or cells: HT-22 cells
T2 sequence (Q03137 20-986): as the sequence (D3ZZK3 20-986) above, with T270S, Q559K, P874S counted along it
Procedure: HT-22 cells were seeded on poly-D-lysine coverslips. […] The cells were then fixed with 4% paraformaldehyde and then immunostained with Alexa Fluor 488-conjugated Streptavidin antibody (Molecular Probes) for surfacing labeling of biotinylated ephrin-A1.

[4] = test system: Aβ-triggered reduction of dendritic spines in hippocampal neurons; test: Dendritic spine analysis in Aβ-treated hippocampal neurons; type: cell-based, rat
Procedure: Cultured rat hippocampal neurons were transfected with GFP plasmid at 14-16 DIV and exposed to Aβ at 24-28 DIV for 24 h after treatment with 30 μM KYL peptide. The neurons were fixed with 4% paraformaldehyde and examined using confocal microscopy using a 63× objective lens as previously described^24.

[5] = test system: Aβ-induced impairment of hippocampal LTP; test: HFS-induced LTP (fEPSP slope) in acute hippocampal slices treated with Aβ; type: cell-based, mouse
Procedure: Oligomeric Aβ (Aβ) was prepared as described previously^59,60. Briefly, 0.5 mg monomeric Aβ1-42 was dissolved in 22.2 μL dry DMSO and then diluted in ice-cold phenol-red free F-12 medium to yield a final Aβ concentration of 100 μM. The Aβ solution was incubated at 4° C. for 24 h and then centrifuged at 14,000×g for 10 min. The supernatant was frozen in liquid nitrogen and stored at −20° C. for up to 1 month. Unless specified, cultured neurons or hippocampal slices were typically treated with Aβ at 500 nM.
For LTP recordings, mouse brains were immediately dissected after sacrifice and soaked in ice-cold 95% O2/5% CO2 (aCSF)^58. Brain slices (300 μm thick) were prepared using a vibrating tissue slicer (HM650V; Thermo), and soaked in oxygenated buffer for 2 h at 32° C. The hippocampal regions were resected and placed at the center of a MED-P210A probe (Panasonic International Inc) with 64 embedded recording electrodes. The slices were then perfused with Aβ at 500 nM in oxygenated aCSF for 2 h before LTP induction^70. For treatment with EphA4 inhibitors, the slices were pretreated with peptides or chemicals for 1 h before application of Aβ. fEPSPs were recorded using a MED64 multichannel recording system, and the data were collected from the dendritic layer of area CA1 at a sampling rate of 10 kHz. For each slice, the baseline stimulus intensity was set at the level that elicited ˜50% of the maximum fEPSP response determined according to the input-output curve. LTP was induced by 3 trains of HFS (100 Hz, 1 s, delivered 30 s apart). The magnitude of LTP was quantified as a percentage change in the fEPSP slope (10%-90%) taken during the 60-min interval after LTP induction.

[6] = biological target: EphA4 (Homo sapiens, UniProt P54764); test: Inhibition of EphA4 signaling (assay not specified)
Chain of EphA4 (Homo sapiens, UniProt P54764) (P54764 20-986, species assumed): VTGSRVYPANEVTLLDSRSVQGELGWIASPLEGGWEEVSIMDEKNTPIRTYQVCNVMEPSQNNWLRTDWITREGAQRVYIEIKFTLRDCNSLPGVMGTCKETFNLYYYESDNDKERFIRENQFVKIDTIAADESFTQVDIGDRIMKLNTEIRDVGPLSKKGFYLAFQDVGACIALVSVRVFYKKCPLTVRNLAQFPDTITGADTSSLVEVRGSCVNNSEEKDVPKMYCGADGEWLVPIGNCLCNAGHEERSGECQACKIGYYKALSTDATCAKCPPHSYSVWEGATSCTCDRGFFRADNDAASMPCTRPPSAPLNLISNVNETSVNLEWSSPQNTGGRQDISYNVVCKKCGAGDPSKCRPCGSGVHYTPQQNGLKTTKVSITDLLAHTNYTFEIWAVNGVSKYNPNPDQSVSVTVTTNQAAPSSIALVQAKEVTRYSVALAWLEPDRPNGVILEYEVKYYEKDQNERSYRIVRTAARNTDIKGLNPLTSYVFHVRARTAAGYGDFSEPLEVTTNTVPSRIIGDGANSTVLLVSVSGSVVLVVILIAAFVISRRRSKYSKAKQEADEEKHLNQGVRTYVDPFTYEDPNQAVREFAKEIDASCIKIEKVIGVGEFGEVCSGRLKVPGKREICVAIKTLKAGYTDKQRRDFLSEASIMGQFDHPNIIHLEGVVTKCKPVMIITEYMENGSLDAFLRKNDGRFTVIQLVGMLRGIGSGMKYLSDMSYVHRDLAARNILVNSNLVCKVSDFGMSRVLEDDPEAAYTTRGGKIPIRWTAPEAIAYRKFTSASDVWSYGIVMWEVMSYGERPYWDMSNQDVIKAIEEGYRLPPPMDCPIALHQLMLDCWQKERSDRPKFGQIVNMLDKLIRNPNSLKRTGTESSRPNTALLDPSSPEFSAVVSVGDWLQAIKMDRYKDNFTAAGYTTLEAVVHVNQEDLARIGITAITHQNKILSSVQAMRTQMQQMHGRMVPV

| Compound | mean fEPSP slope, last 10 min after LTP induction ([1]; APP/PS1 (Tg) mice, Tg Con 154.0±8.2%) [%] | mean fEPSP slope, last 10 min after LTP induction ([1]; WT mice, WT Con 191.8±9.5%) [%] | Aβ-stimulated tyrosine phosphorylation of EphA4 [2] | binding of ephrin-A1 to HT-22 cells [3] | dendritic spine density ([4]; KYL peptide alone (30 μM), control 0.66±0.1/μm) | dendritic spine density ([4]; co-treatment of Aβ (24 h) and KYL peptide (30 μM), Aβ alone 0.46±0.21/μm) | mean fEPSP slope, last 10 min after LTP induction ([5]; KYL peptide 100 μM + Aβ, Aβ alone 132±6.06%) [%] | mean fEPSP slope, last 10 min after LTP induction ([5]; KYL peptide 100 μM alone, control 169±6.72%) [%] | inhibition of EphA4 signaling [6] |
| --- | --- | --- | --- | --- | --- | --- | --- | --- | --- |
| KYLPYWPVLSSL [KYL peptide, reference compound] | 181.9±8.6 | 190.1±6.9 | abolished the Aβ-stimulated tyrosine phosphorylation of EphA4 | reduced the binding of ephrin-A1 to HT-22 cells | 0.55±0.13 /μm | 0.61±0.18 /μm | 174.9±9.0 | 164.6±5.7 |  |
| CC[C@H]1CN2CC[C@@]3(C(=O)Nc4ccccc43)[C@@H]2C[C@@H]1/C(=C\OC)C(=O)OC [IsoRhy, isorhynchophylline] |  |  |  |  |  |  |  |  | inactive in inhibiting EphA4 signaling |

— patent US9629830B2, “EphA4 inhibitors as neuroprotective agents” (The Hong Kong University of Science and Technology, priority 2013, dated 2017)
